Key:
thoracic aortas = assay: Vasodilating activity, phenylephrine-contracted thoracic aorta ring preparations (Magnus method); design: species or system Sprague-Dawley male rats; details: rat thoracic aorta ring preparations contracted with 1 μM phenylephrine, 37° C., drug added cumulatively
Description: Pharmacological Test Example 2: Vasodilating Activity
A vasodilating activity was assessed according to the method of Ken-ichi Hirata and Mitsuhiro Yokoyama (Arteriosclerosis and Hyperlipemia Research Strategies, published by Shujunsha (Japan), pages 275-277, 1996): The thoracic aortas were extracted from Sprague-Dawley male rats (weighing 180 to 360 g). After unnecessary connective tissues were removed, the aortas were cut to 5mm-long pieces to make ring strip preparations, and assessed by the Magnus method (37° C.). A nutrient solution used was a Krebs-Henseleit solution aerated with 5% carbon dioxide gas and 95% oxygen gas. Specimens were equilibrated for about 60 minutes, and then contracted by adding 1 μM of phenylephrine. 1 μM of acetylcholine was added at the second phenylepherine-induced contraction in order to confirm an endothelial cell dependent relaxation response. At the third phenylepherine-induced contraction, a drug to test was added cumulatively, and the relaxation action was observed. Drugs to test were all dissolved in DMSO to use for the tests. The tested drugs were assessed by 50% relaxation rates (EC50) obtained from vasodilation rates to respective concentrations (the maximum relaxation was measured by adding 100 μM of papaverine).

[1] = target: PDE 1 (Ca-calmodulin activatable PDE); assay: Phosphodiesterase inhibiting activity, PDE 1; format: biochemical; details: isozyme from dog heart; 1 μM [3H]-cAMP or [3H]-cGMP; read-out: Inhibition of PDE Activity: IC50 PDE 1
Description: (§1) Pharmacological Test Example 1: Phosphodiesterase Inhibiting Activity
(§2) Cyclic nucleotide phosphodiesterases from human platelets and from the heart and kidney of a dog were eluted by the concentration gradient method with 70 to 1000 mM of sodium acetate on DEAE-cellulose column chromatography (Whatman Co. Ltd., DE-52, φ3.2×13 cm) according to the method of Thompson and others (Thompson W. J., et al., Advances in Cyclic Nucleotide Research: 10, 69-92, 1979), and separated into isozymes. PDE 5 (cGMP specific PDE) and PDE 3 (cGMP inhibitable cAMP PDE) were separated from the platelets, PDE 1 (Ca-calmodulin activatable PDE) from the heart, and PDE 4 (cGMP non-inhibitable cAMP PDE) from the kidney. The method of Thompson, et al was partially modified to measure phosphodiesterase activities: 1 μM of [3H]-cAMP or [3H]-cGMP was decomposed with phosphodiesterase. The produced 5′-AMP or 5′-GMP was decomposed to adenosine or guanosine with a snake venom (Sigma V7000). The reaction solution was added to anion exchange resin (Bio-Rad Co. Ltd., AG1-X8). Non-adsorbed adenosine or guanosine was counted by a liquid scintillation counter. A concentration causing 50% inhibition of the enzyme activity (IC50) was calculated from concentration inhibition curves.

[2] = target: PDE 4 (cGMP non-inhibitable cAMP PDE); assay: Phosphodiesterase inhibiting activity, PDE 4; format: biochemical; details: isozyme from dog kidney; 1 μM [3H]-cAMP or [3H]-cGMP; read-out: Inhibition of PDE Activity: IC50 PDE 4
Description: as §1, §2

[3] = target: T1, PDE 3 (cGMP inhibitable cAMP PDE) (Homo sapiens, UniProt Q14432); assay: Phosphodiesterase inhibiting activity, PDE 3; format: biochemical; details: isozyme from human platelets; 1 μM [3H]-cAMP or [3H]-cGMP; read-out: Inhibition of PDE Activity: IC50 PDE 3
T1 construct: from tissue; host or cells: human platelets
T1 sequence (Q14432 whole entry): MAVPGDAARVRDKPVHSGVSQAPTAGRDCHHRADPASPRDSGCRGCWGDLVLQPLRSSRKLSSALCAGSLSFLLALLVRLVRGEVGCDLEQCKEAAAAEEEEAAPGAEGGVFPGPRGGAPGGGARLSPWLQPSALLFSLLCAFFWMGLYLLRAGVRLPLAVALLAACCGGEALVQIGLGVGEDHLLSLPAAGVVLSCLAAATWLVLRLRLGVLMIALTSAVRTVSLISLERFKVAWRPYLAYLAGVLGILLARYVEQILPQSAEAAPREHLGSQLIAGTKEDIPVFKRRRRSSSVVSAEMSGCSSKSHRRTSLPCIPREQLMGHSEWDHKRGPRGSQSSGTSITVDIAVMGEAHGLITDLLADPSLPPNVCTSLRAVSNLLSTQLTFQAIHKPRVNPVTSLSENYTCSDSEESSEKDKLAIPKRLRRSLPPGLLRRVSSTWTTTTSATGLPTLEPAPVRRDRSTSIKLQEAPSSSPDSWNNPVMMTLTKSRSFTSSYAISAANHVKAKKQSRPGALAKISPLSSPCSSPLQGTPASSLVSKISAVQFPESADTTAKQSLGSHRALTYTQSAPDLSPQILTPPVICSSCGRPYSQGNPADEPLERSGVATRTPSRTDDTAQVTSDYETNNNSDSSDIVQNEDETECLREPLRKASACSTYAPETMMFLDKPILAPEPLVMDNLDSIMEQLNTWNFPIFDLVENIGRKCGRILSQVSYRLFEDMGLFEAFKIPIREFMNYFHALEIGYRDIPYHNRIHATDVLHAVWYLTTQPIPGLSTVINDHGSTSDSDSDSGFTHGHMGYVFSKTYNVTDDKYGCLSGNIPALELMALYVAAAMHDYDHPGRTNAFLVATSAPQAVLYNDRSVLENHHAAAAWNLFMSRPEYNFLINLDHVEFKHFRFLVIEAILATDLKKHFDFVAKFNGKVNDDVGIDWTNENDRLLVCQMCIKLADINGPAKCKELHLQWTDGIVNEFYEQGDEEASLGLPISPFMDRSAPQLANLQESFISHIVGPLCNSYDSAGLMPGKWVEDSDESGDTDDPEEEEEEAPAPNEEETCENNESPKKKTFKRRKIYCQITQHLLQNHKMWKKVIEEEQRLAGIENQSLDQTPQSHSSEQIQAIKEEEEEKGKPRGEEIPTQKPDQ
Description: as §1, §2

PDE 2 = target: T2, PDE 2 (Homo sapiens, UniProt O00408); assay: Phosphodiesterase inhibiting activity, PDE 2; format: biochemical; details: 1 μM [3H]-cAMP or [3H]-cGMP; source of isozyme not given; read-out: Inhibition of PDE Activity: IC50 PDE 2
T2 construct: eluted by the concentration gradient method with 70 to 1000 mM of sodium acetate on DEAE-cellulose column chromatography; from tissue
T2 sequence (O00408 whole entry): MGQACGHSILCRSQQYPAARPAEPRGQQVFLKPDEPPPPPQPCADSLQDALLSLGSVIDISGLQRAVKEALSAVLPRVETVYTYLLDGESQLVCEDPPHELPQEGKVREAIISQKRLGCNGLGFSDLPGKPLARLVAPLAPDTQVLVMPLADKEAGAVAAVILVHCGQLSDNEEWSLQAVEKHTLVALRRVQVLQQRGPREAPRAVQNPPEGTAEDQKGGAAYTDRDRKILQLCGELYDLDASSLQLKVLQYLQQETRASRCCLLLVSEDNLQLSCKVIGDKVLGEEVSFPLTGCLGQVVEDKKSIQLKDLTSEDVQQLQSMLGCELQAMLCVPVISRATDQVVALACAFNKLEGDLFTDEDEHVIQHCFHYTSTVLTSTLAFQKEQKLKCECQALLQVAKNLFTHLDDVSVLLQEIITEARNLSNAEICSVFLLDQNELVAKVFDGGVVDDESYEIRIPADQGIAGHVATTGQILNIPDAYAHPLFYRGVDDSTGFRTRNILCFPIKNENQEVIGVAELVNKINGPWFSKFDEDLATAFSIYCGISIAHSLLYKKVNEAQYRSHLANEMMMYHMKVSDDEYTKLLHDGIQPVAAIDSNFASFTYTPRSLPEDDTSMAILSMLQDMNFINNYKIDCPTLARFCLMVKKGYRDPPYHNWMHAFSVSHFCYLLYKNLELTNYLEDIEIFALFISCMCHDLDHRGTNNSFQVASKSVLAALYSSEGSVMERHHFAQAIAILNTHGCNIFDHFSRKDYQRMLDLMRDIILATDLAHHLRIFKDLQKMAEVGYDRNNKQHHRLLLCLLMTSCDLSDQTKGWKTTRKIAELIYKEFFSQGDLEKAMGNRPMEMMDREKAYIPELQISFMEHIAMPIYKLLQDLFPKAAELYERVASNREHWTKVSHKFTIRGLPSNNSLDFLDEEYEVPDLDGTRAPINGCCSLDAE
Description: [Worded in the source for another target; this target is reported under the same test.] as §1, §2

[4] = target: T3, PDE 5 (cGMP specific PDE) (Homo sapiens, UniProt O76074); assay: Phosphodiesterase inhibiting activity, PDE 5; format: biochemical; details: isozyme from human platelets; 1 μM [3H]-cAMP or [3H]-cGMP; read-out: Inhibition of PDE Activity: IC50 PDE 5
T3 construct: from tissue; host or cells: human platelets
Description: as §1, §2

Row | Compound | EC50 (thoracic aortas) [nM] | IC50 [1] [nM] | IC50 [2] [nM] | IC50 [3] [nM] | IC50 (PDE 2) [nM] | IC50 [4] [nM]
1 | COc1ccc(CNc2nc(-c3ccc4c(c3)OCO4)nc3sc4c(c23)CCN(Cc2ccccc2)C4)cc1Cl [1-1] | 86 | > 10000 | > 10000 | > 10000 | 3900 | 0.92
2 | COc1ccc(CNc2nc(-c3cccnc3)nc3sc4c(c23)CCN(Cc2ccccc2)C4)cc1Cl [1-4] | 19 | > 10000 | 2000 | 6100 | 2700 | 2.6
3 | CCOC(=O)N1CCc2c(sc3nc(-c4cccnc4)nc(NCc4ccc(OC)c(Cl)c4)c23)C1 [1-15, 5,6,7,8-tetrahydro-4-[(3-chloro-4-methoxy)benzylamino]-7-ethoxycarbonyl-2-(3-pyridyl)pyrido[4′,3′:4,5]thieno[2,3-d]pyrimidine] | 2.1 | – | – | – | – | –
4 | CCOc1ccccc1NC(=O)c1nc(NCc2ccc(OC)c(Cl)c2)c2c3c(sc2n1)CN(C(C)C)CC3 [1-55] | 180 | > 10000 | 2000 | > 10000 | > 10000 | 62
5 | COc1ccc(CNc2nc(C(=O)Nc3nccs3)nc3sc4c(c23)CCN(C)C4)cc1Cl [1-57] | 2.7 | > 10000 | > 10000 | > 10000 | > 10000 | 0.55
6 | COc1ccc(CNc2nc(C(=O)Nc3ccncc3)nc3sc4c(c23)CCN(C)C4)cc1Cl [1-58] | 5.1 | > 10000 | > 10000 | > 10000 | > 10000 | 2.1
7 | COc1ccc(CNc2nc(C(=O)Nc3ccc(-n4ccnc4)cc3)nc3sc4c(c23)CCN(C)C4)cc1Cl [1-59] | 7.6 | > 10000 | 3400 | 7600 | 6100 | 78
8 | COc1ccc(CNc2nc(C(=O)Nc3ccccc3Cl)nc3sc4c(c23)CCN(C)C4)cc1Cl [1-60] | 7.5 | > 10000 | 3600 | > 10000 | > 10000 | 14
9 | COc1ccc(CNc2nc(C(=O)Nc3ccc(Cl)cc3)nc3sc4c(c23)CCN(C)C4)cc1Cl [1-61, 5,6,7,8-tetrahydro-4-[(3-chloro-4-methoxy)benzylamino]-7-methylpyrido[4′,3′:4,5]thieno[2,3-d]pyrimidine-2-N-(4-chlorophenyl)carboxamide] | 8.7 | > 10000 | > 10000 | > 10000 | > 10000 | 0.92
10 | COc1ccc(NC(=O)c2nc(NCc3ccc(OC)c(Cl)c3)c3c4c(sc3n2)CN(C)CC4)cc1 [1-62] | 7.2 | > 10000 | > 10000 | > 10000 | > 10000 | 2.4
11 | COc1ccc(CNc2nc(C(=O)NC3CCCCC3)nc3sc4c(c23)CCN(C)C4)cc1Cl [1-63] | 4.8 | > 10000 | > 10000 | > 10000 | > 10000 | 0.38
12 | COc1ccc(CNc2nc(C(=O)Nc3ccccc3)nc3sc4c(c23)CCN(Cc2ccccc2)C4)cc1Cl [1-67] | 82 | > 10000 | > 10000 | > 10000 | > 10000 | 0.39
13 | CCOC(=O)c1nc(NCc2ccc(OC)c(Cl)c2)c2c3c(sc2n1)CN(C)CC3 [1-69, ethyl 5,6,7,8-tetrahydro-4-[(3-chloro-4-methoxy)benzylamino]-7-methylpyrido[4′,3′:4,5]thieno[2,3-d]pyrimidine-2-carboxylate] | 18 | > 10000 | > 10000 | > 10000 | > 10000 | 31
14 | COc1ccc(CNc2nc(C(N)=O)nc3sc4c(c23)CCN(C)C4)cc1Cl [1-83] | – | 1300 | > 10000 | > 10000 | 3100 | 75

Reference: patent US6482948B1, “Thienopyrimidine compounds and salts thereof and process for the preparation of the same” (Nippon Soda Co., Ltd., priority 1999, dated 2002)
